Our source for the absorption maximum values is the Deep4Chem optical property database.

Each structure is given as a SMILES string.

This data set can be described thus: solvent given as SMILES.

For `O=Cc1ccc(C#CC(C#Cc2ccc(C=O)o2)=Cc2ccc(C=C(C#Cc3ccc(C=O)o3)C#Cc3ccc(C=O)o3)cc2)o1`, the absorption maximum (in ClC(Cl)Cl) was 450 nm.
As for `C1=Cc2ccccc2C(=Cc2ccc(-c3ccc(C=C4c5ccccc5C=Cc5ccccc54)cc3)cc2)c2ccccc21`, the absorption maximum (in C1CCOC1) is 339 nm.
Molecule `COc1ccc(N(c2ccc(OC)cc2)c2ccc(-c3ccc(C=C(C#N)C#N)o3)cc2)cc1` came in with an absorption maximum (in ClC(Cl)Cl) of 524 nm.
Regarding `COc1ccc(-c2cnc(/C=C/c3ccccc3)o2)cc1OC`, the absorption maximum (in ClCCl) turned out to be 350 nm.
Take `CC[n+]1c(C=C2C(=O)C(C=C3Sc4cc(Cl)ccc4N3C)=C2[O-])[se]c2ccccc21`: the absorption maximum is, setting by setting: (in CO) 658 nm; (in ClC(Cl)Cl) 677 nm; (in ClCCl) 678 nm.
With `c1cc2ccc3ccc(OP4(Oc5ccc6ccc7cccc8ccc5c6c78)=NP(Oc5ccc6ccc7cccc8ccc5c6c78)(Oc5ccc6ccc7cccc8ccc5c6c78)=NP(Oc5ccc6ccc7cccc8ccc5c6c78)(Oc5ccc6ccc7cccc8ccc5c6c78)=N4)c4ccc(c1)c2c34`, where the note is “in ClCCl”, the absorption maximum is recorded as 343 nm.
On to `C1=CC2=Nc3cccc[n+]3CN2C=C1`, for which, for the setting “in CO”, the absorption maximum is 412 nm.
Consider `CC1(C)c2ccccc2N(c2ccc3c(c2)C2(c4cc(N5c6ccccc6C(C)(C)c6ccccc65)ccc4-3)c3ccccc3S(=O)(=O)c3ccccc32)c2ccccc21`, for which the absorption maximum (in Cc1ccccc1) came out at 364 nm.
For `c1ccc(C2CCN3COc4c5ccccc5c5c6c7c(c2c3c46)C(c2ccccc2)CCN7CO5)cc1` (centres undefined), the absorption maximum is 403 nm (in C1CCCCC1); 405 nm (in C1CCOC1); 405 nm (in C1COCCO1); 405 nm (in CC#N); 406 nm (in CC(C)=O); 404 nm (in CCOC(C)=O). In addition, the absorption maximum is, setting by setting: (in CCOCC) 404 nm; (in CN(C)C=O) 407 nm; (in CO) 402 nm; (in CS(C)=O) 408 nm; (in Cc1ccccc1) 406 nm; (in ClC(Cl)Cl) 404 nm. Moreover, the absorption maximum (in ClCCl) is 405 nm.
Consider `N#Cc1ccc(C#Cc2ncc(-c3ccccc3)o2)cc1`, for which the absorption maximum (in ClCCl) was found to be 345 nm.
